This passage reports XC50 results from ChEMBL document CHEMBL1157539, “Thousands of chemical starting points for antimalarial lead identification” (Nature, 2010).

The assay relates to Plasmodium falciparum. Nature of the assay: GSK_TCMDC: Inhibition of Plasmodium falciparum 3D7 in whole erythrocytes, using parasite LDH activity as an index of growth. The format is functional, organism-based. The conditions noted are these: Plasmodium falciparum, 3D7.

As to `Cc1cc(OCCCN2CCCCC2)ccc1NC(=O)COc1ccc(Cl)cc1C(=O)c1cc(Cl)cc(C#N)c1`, the XC50 stood at 892 nM. In the case of `Cc1cc(N(CCCN(C)C)Cc2cc(F)cc(F)c2)nc(Nc2ccc(Cl)cc2)n1`, the XC50 was found to be 536 nM. Compound `COc1ccccc1C1CCN(C2CCC(NC(=O)/C=C/c3cc(C(F)(F)F)ccc3F)CC2)CC1` (configuration not stated) registered an XC50 of 868 nM. Consider `Clc1ccc2c(NN=Cc3ccco3)ccnc2c1`, for which the XC50 worked out at 1100 nM. The value for `COCC(C)n1c(SC(C)C(=O)Nc2cc([N+](=O)[O-])ccc2Cl)nc2ccccc2c1=O` (configuration not stated) was 229 nM; that for `COc1ccc2[nH]cc(C3CCN(CCCCNC(=O)c4ccc(NC(=O)c5ccc(Cl)cc5)cc4)CC3)c2c1` was 1020 nM.

The compound `COc1c(C2CCN(CCCCNC(=O)c3cc(-c4ccc(Cl)cc4)sc3C)CC2)ccc2c1CCCC2` displayed an XC50 of 629 nM. The value for `O=C(Nc1ccc(Cl)c(Cl)c1)N1CCC(CN2CCC(c3c[nH]c4ccccc34)CC2)CC1` was 295 nM; that for `c1cc2[nH]c(CCCCCc3nc4cc(C5=N[C@@H]6CCCC[C@@H]6N5)ccc4[nH]3)nc2cc1C1=N[C@@H]2CCCC[C@@H]2N1` was 199 nM; that for `c1ccc2c(NCCc3c[nH]cn3)c3ccccc3nc2c1` was 1040 nM. The value for `CCCN1CCN(c2ccc(NS(=O)(=O)c3ccc(C(=O)Nc4ccc(Cl)cc4)cc3)cc2)CC1` was 1110 nM.

The compound `CN1CCC(C(=O)Nc2ccc(-c3ccc(-c4nc5cc(C(F)(F)F)ccc5[nH]4)s3)cc2)CC1` yielded an XC50 of 987 nM. Compound `O=c1[nH]c2c(cc1CNC1CCCCC1)c(-c1cccc(F)c1)nn2-c1ccccc1` showed an XC50 of 945 nM.

Turning to `O=C(Nc1cccc(F)c1)NC1CCN(c2ccnc3cc(Cl)ccc23)CC1`, the XC50 was 609 nM. The value for `O=C(CCOc1ccccc1)NCC1CCCO1` (configuration not stated) was 1000 nM; that for `O=C(Nc1cccc(CN2CCCN(Cc3cccc(Cl)c3)CC2)c1)c1ccc(Br)cc1` was 944 nM.

Compound `Fc1cccc(COc2ccc(Nc3ncnc4ccc(-c5nnc(C(F)(F)F)o5)cc34)cc2Cl)c1` registered an XC50 of 579 nM. Consider `CC(C)CCNc1nc(NCCc2ccccc2)c2cc(O)ccc2n1`, for which the XC50 is 238 nM. `COc1ccc(OC)c(CNCC(O)c2cc(C(F)(F)F)cc(C(F)(F)F)c2)c1` (configuration not stated) came in with an XC50 of 443 nM. `Cc1cc(-c2c[nH]c3ncc(-c4cccc5ncccc45)cc23)ccc1C(=O)O`: the XC50 was 761 nM. The value for `COc1cc2nc(N3CCN(C(=O)c4cccc(I)c4)CC3)nc(N)c2cc1OC` was 1320 nM; that for `Cc1ccnc(NC(=O)c2cc(-c3cccc([N+](=O)[O-])c3)nc3onc(C)c23)c1` was 888 nM; that for `CC(Cc1ccc(C(=O)N2CCN(C(=O)c3ccc(CC(C)NCCc4cccc(Cl)c4)cc3)CC2)cc1)NCCc1cccc(Cl)c1` (configuration not stated) was 677 nM. The value for `COCCNCc1ncsc1-c1ccc2c(Nc3ccc(Oc4ccccc4)cc3)ccnc2c1` was 905 nM. For the compound `Cc1cc(NCCc2ccccc2)nc(N/C(=N/CC(=O)OC(C)(C)C)Nc2ccc(C(F)(F)F)cc2)n1`, the XC50 was found to be 335 nM. The value for `c1cc(-c2ccc(CNC3CC3)cc2)cc(-c2nc3ccccc3[nH]2)c1` was 1660 nM; that for `CCCCNc1ccc(C(=O)NC2CCN(C[C@H](O)c3ccnc4ccc(OC)cc34)CC2)cc1` was 442 nM. The value for `COc1ccc(N2C(=O)c3c(c4ccccc4n3C)C2c2ccccc2O)cc1` (configuration not stated) was 117 nM; that for `CC(C)(C)c1ccc(NC(=O)c2cccc(CN3CCCN(Cc4ccsc4)CC3)c2)cc1` was 760 nM.

On to `CCCCCOc1c(CCC)cc(Cc2cnc(N)nc2N)cc1CCC`, for which the XC50 worked out at 898 nM.

For the compound `Cc1nc(N)nc(N)c1Oc1cccc(Cl)c1`, the XC50 came to 871 nM. The compound `c1ccc(Oc2ccc(Nc3ccnc4cc(-c5cccc(CNCCN6CCOCC6)c5)ccc34)cc2)cc1` yielded an XC50 of 391 nM. Turning to `CCOc1ccc(C2CCN(CCN3CCC(NC(=O)c4ccc(-c5ccc(C(F)(F)F)cc5)cc4)CC3)CC2)c(OCC2CC2)c1`, the XC50 turned out to be 826 nM. The compound `CC1CN(c2cnn(C/C=C/c3ccc(NC(=O)c4ccc5nonc5c4)cc3)c(=O)c2Cl)CC(C)N1` (configuration not stated) displayed an XC50 of 786 nM.

For the compound `CC(C)Sc1nncc(-c2cnnc(SC(C)C)n2)n1`, the XC50 worked out at 141 nM. The value for `CCCC(=O)Nc1ccc(OCCCN(Cc2ccccc2OC(F)(F)F)c2ccc(C#N)c(C(F)(F)F)c2)cc1` was 600 nM. The value for `Clc1ccc(CCNCCCCCCNCCc2ccc3c(c2)OCO3)cc1` was 1730 nM. The value for `O=C(/C=C/c1ccc(Cl)c(Cl)c1)NCCCCCN1CCC(NC(=O)Nc2cccc(F)c2)CC1` was 769 nM; that for `COc1cccc(C(=O)NCCc2cccc(Cl)c2)c1OCc1ccccc1` was 1260 nM. Take `Cc1cc(=NN=Cc2ccc(F)cc2)c2ccc(F)cc2[nH]1`: the XC50 turned out to be 950 nM.

In turn, `CCCOc1ccc2ccccc2c1CNCCCCCCNCc1c(OCCC)ccc2ccccc12` displayed an XC50 of 791 nM.

The compound `Fc1cccc(COc2ccc(Nc3ncnc4sc(C#Cc5ncc[nH]5)cc34)cc2Cl)c1` came in with an XC50 of 134 nM. For `N#Cc1ccc2c(c1)CN(C1CCC(NC(=O)C3=Cc4cc(Cl)ccc4OC3)CC1)CCC2` (configuration not stated), the XC50 was 1330 nM.

In turn, `COc1ccc(CCNc2nc(N)c3cc(OC)c(OC)cc3n2)cc1` had an XC50 of 1120 nM.

For `COc1cc2c(cc1S(=O)(=O)c1ccc(OCc3ccc(Cl)cc3)cc1)CCN(Cc1ccc(NC(C)=O)s1)CC2`, the XC50 worked out at 919 nM. The value for `Cc1nc(-c2cccc(Nc3nccc(NCC(O)c4ccccc4)n3)c2)cs1` (configuration not stated) was 793 nM; that for `CC(=O)Nc1sc(C)c(C)c1CN1CCc2ccccc2C1` was 616 nM.

Compound `CCCN(CCC)C(=O)c1cc(C(=O)N[C@@H](Cc2ccccc2)[C@H](O)CNC(C)(C)c2cccc(OC)c2)cc(N2CCCCS2(=O)=O)c1` yielded an XC50 of 29.8 nM. The compound `O=S(=O)(NCCN1CCCC1)c1ccc(-c2ccccc2CNC2Cc3ccccc3C2)cc1` gave an XC50 of 847 nM. The value for `O=C1Nc2cccc3c2C1(CCCCN1CCC(c2c(-c4ccc(F)cc4)[nH]c4ccccc24)CC1)CCC3` (configuration not stated) was 1190 nM; that for `COc1cc(NCC(O)CNc2cc(Cl)nc3ccccc23)nc2ccccc12` (configuration not stated) was 416 nM; that for `Cc1cc(NCCc2cccc(F)c2)nc(NC(=N)Nc2cccc(C(F)(F)F)c2)n1` was 146 nM.

In the case of `COc1cc(C2NCC3(CCOCC3)c3cc4c(cc32)OCCO4)cc(OC)c1OC` (configuration not stated), the XC50 was 169 nM.

The compound `CN(C)c1ccc(CN2CCC(NC(=O)c3ccc(-c4ccccc4Cl)s3)CC2)cc1` yielded an XC50 of 899 nM. The value for `CCCCCC1c2[nH]c3ccccc3c2CCN1C(=O)OCc1ccccc1` (configuration not stated) was 389 nM; that for `O=C(NC1CC1)c1ccc(N2CCC(c3ccccc3)CC2)nc1` was 1110 nM. The value for `CCCCC(O)c1cc(O)c2c(c1)OC(C)(C)CC2C1=CCN(Cc2ccc3ccccc3c2)CC1` (configuration not stated) was 970 nM. In turn, `O=C(NCCCCCN1CCC(c2c[nH]c3ccccc23)CC1)Nc1ccc(I)c(Cl)c1` had an XC50 of 969 nM. The value for `CC(CN(C)C)C(=O)Nc1cccc(-c2ccc(-c3nc4ccccc4[nH]3)cc2)c1` (configuration not stated) was 706 nM; that for `O=C(NCCNc1ccnc(NCc2ccc(F)cc2)n1)c1cc2ccccc2s1` was 695 nM. On to `COc1cc(NC(=O)C(c2ccc(Cl)cc2)C(C)C)cc(OC)c1` (configuration not stated), for which the XC50 stood at 723 nM. Compound `O=C(/C=C/c1cccc(OC(F)(F)F)c1)NCCCCCN1CCC(c2c[nH]c3ccccc23)CC1` displayed an XC50 of 958 nM.
